ChEMBL document CHEMBL1201862, “PubChem BioAssay data set” (2004)
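A five-concentration, 48-hour dose response in 96-well plates underlies each endpoint, interpolated linearly between surrounding concentrations. Here, GI50 denotes the concentration required for 50% inhibition of growth.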 The source made the active and inactive calls. No stated cut-off is given here; in the data, active = GI50 up to about 1.1 µM and inactive = higher.

Experiments:
Assay in all cases: growth of human tumour cells (NCI), 48 h
SF-295 = tested on: SF-295
IGROV-1 = tested on: IGROV-1
UO-31 = tested on: UO-31
Hs-578T = tested on: Hs-578T
CCRF-CEM = tested on: CCRF-CEM
786-0 = tested on: 786-0
NCI-H460 = tested on: NCI-H460
SR = tested on: SR
HT-29 = tested on: HT-29
NCI/ADR-RES = tested on: NCI/ADR-RES
K562 = tested on: K562
OVCAR-8 = tested on: OVCAR-8
HCT-116 = tested on: HCT-116
BT-549 = tested on: BT-549
OVCAR-4 = tested on: OVCAR-4
HCT-15 = tested on: HCT-15
UACC-257 = tested on: UACC-257
CAKI-1 = tested on: CAKI-1
COLO 205 = tested on: COLO 205
SK-OV-3 = tested on: SK-OV-3
OVCAR-3 = tested on: OVCAR-3
TK-10 = tested on: TK-10
RXF 393 = tested on: RXF 393
SK-MEL-28 = tested on: SK-MEL-28
KM12 = tested on: KM12
T47D = tested on: T47D
DU-145 = tested on: DU-145
ACHN = tested on: ACHN
UACC-62 = tested on: UACC-62
HOP-92 = tested on: HOP-92
OVCAR-5 = tested on: OVCAR-5
A549 = tested on: A549
NCI-H23 = tested on: NCI-H23
MDA-MB-231 = tested on: MDA-MB-231
SF-539 = tested on: SF-539
Malme-3M = tested on: Malme-3M
EKVX = tested on: EKVX
SF-268 = tested on: SF-268
SNB-75 = tested on: SNB-75
MDA-MB-435 = tested on: MDA-MB-435
M14 = tested on: M14
SK-MEL-2 = tested on: SK-MEL-2
U-251 = tested on: U-251
SK-MEL-5 = tested on: SK-MEL-5
NCI-H522 = tested on: NCI-H522
SNB-19 = tested on: SNB-19
SN12C = tested on: SN12C
PC-3 = tested on: PC-3
HL-60 = tested on: HL-60
HOP-62 = tested on: HOP-62
NCI-H226 = tested on: NCI-H226
MCF7 = tested on: MCF7
A498 = tested on: A498
LOX IMVI = tested on: LOX IMVI
RPMI-8226 = tested on: RPMI-8226
MDA-N = tested on: MDA-N
SW-620 = tested on: SW-620
HCC 2998 = tested on: HCC 2998
MOLT-4 = tested on: MOLT-4
SNB-78 = tested on: SNB-78
LXFL 529 = tested on: LXFL 529
M19-MEL = tested on: M19-MEL
DMS-114 = tested on: DMS-114
KM-20L2 = tested on: KM-20L2

Measured: GI50

CC(=O)CCCCn1c(=O)c2c(nc(Br)n2C)n(C)c1=O
inactive: SF-295 > 100 µM | IGROV-1 44.2 µM | UO-31 32.4 µM | Hs-578T > 100 µM | CCRF-CEM > 100 µM | 786-0 > 100 µM | NCI-H460 > 100 µM | SR > 100 µM | HT-29 > 100 µM | NCI/ADR-RES > 100 µM | K562 62.1 µM | OVCAR-8 > 100 µM | HCT-116 > 100 µM | BT-549 > 100 µM | OVCAR-4 > 100 µM | UACC-257 > 100 µM | CAKI-1 1.82 µM | COLO 205 > 100 µM | SK-OV-3 > 100 µM | OVCAR-3 > 100 µM | TK-10 > 100 µM | RXF 393 > 100 µM | SK-MEL-28 > 100 µM | KM12 > 100 µM | T47D > 100 µM | DU-145 > 100 µM | ACHN > 100 µM | UACC-62 > 100 µM | HOP-92 11.7 µM | OVCAR-5 > 100 µM | A549 > 100 µM | NCI-H23 > 100 µM | MDA-MB-231 > 100 µM | SF-539 > 100 µM | Malme-3M > 100 µM | EKVX 28.3 µM | SF-268 > 100 µM | SNB-75 > 100 µM | MDA-MB-435 > 100 µM | M14 > 100 µM | SK-MEL-2 > 100 µM | U-251 > 100 µM | SK-MEL-5 > 100 µM | NCI-H522 10.4 µM | SNB-19 > 100 µM | SN12C > 100 µM | PC-3 > 100 µM | HL-60 > 100 µM | HOP-62 > 100 µM | NCI-H226 > 100 µM | MCF7 > 100 µM | A498 95.9 µM | LOX IMVI > 100 µM | RPMI-8226 > 100 µM | MDA-N > 100 µM | SW-620 > 100 µM | HCC 2998 95.3 µM | MOLT-4 > 100 µM
> 100 µM: HCT-15

CCc1c(O)c(O)c(C(C)=O)c2c(O)c(-c3c(C)cc4c(CC)c(O)c(O)c(C(C)=O)c4c3O)c(C)cc12
inactive: SF-295 3.03 µM | IGROV-1 5.52 µM | UO-31 6.49 µM | CCRF-CEM 2.7 µM | SNB-78 2.9 µM | NCI-H460 7.73 µM | SR 38.3 µM | HT-29 5.15 µM | K562 2.62 µM | HCT-116 4.17 µM | OVCAR-4 11.2 µM | UACC-257 11.1 µM | COLO 205 6.79 µM | SK-OV-3 > 10 µM | OVCAR-3 5.05 µM | LXFL 529 4.56 µM | RXF 393 6.85 µM | SK-MEL-28 10.9 µM | KM12 3.74 µM | ACHN 12 µM | UACC-62 7.21 µM | HOP-92 2.78 µM | OVCAR-5 18.9 µM | NCI-H23 2.82 µM | M19-MEL 11.2 µM | SF-539 9.04 µM | Malme-3M 16.7 µM | SF-268 11 µM | DMS-114 5.35 µM | SNB-75 14.1 µM | M14 8.75 µM | SK-MEL-2 7.53 µM | U-251 8.77 µM | NCI-H522 2.92 µM | SNB-19 7.67 µM | HL-60 3.08 µM | HOP-62 13.7 µM | KM-20L2 4.69 µM | RPMI-8226 3.97 µM
